This note sets out measurements from US11679107B2 (Eisai R&D Management Co., Ltd., priority 2018, dated 2023).

In test [1] the test system is Ad2 variant pre-mRNAs spliced in HeLa S3 nuclear extracts. The test can be described thus: In vitro splicing assay (IVS), RT-qPCR of spliced product. The following applies: for IC50: geometric mean; for Ratio Ad2.1/2.2: ratio of IVS IC50 Ad2.1 to Ad2.2. It counts as biochemical. As to the method:
Batch immobilization of anti-SF3B1 antibody (MBL) to anti-mouse PVT SPA scintillation beads (PerkinElmer) was prepared as follows: for every 2.5 mg of nuclear extracts, 5 μg anti-SF3B1 antibody and 1.5 mg of beads were mixed in 150 μl PBS. The antibody-bead mixture was incubated for 30 min at RT and centrifuged at 18,000 g for 5 min. 150 μl PBS was used to resuspend every 1.5 mg antibody-bead mixture. The beads were suspended and added to the prepared nuclear extracts. The slurry was incubated for 2 h at 4° C. with gentle mixing. The beads were then collected by centrifuging at 18,000 g for 5 min, and washed twice with PBS+0.1% Triton X-100. After a final centrifugation step, every 1.5 mg of beads was suspended with 150 μl of PBS. The SF3b complexes were tested for [^3H]-labelled pladienolide probe binding ([^3H]—PB), synthesized as previously described (Kotake et al., 2007). 100 μl binding reactions were prepared with 50 μl bead slurry and by adding varying concentrations of PB or PB—OH, and after 30 min pre-incubation, 2.5 nM [^3H]—PB was added. The mixture was incubated for 30 min, and luminescence signals were read using a MicroBeta2 Plate Counter (PerkinElmer). Prism 6 (Graphpad) was used for non-linear regression curve fitting of the data. • a. • b. HeLa nuclear extract preparation (for in vitro splicing modulation assay below) • c. HeLa S3 cell pellets were resuspended in hypotonic buffer (10 mM HEPES pH 7.9, 1.5 mM MgCl2, 10 mM KCl, 0.2 mM PMSF, and 0.5 mM DTT) and the suspension was brought up to a total of 5 packed cell volume (PCV). After centrifugation, the supernatant was discarded, and the cells were brought up to 3 PCV with hypotonic buffer and incubated on ice for 10 minutes. Cells were lysed using a dounce homogenizer and then centrifuged. The supernatant was discarded, and the pellet was resuspended with ½ packed nuclear volume (PNV) of low salt buffer (20 mM HEPES pH 7.9, 1.5 mM MgCl2, 20 mM KCl, 0.2 mM EDTA, 25% glycerol, 0.2 mM PMSF, 0.5 mM DTT), followed by ½ PNV of high salt buffer (same as low salt buffer except 1.4 M KCl was used). The nuclei were gently mixed for 30 minutes before centrifuging. The supernatant (nuclear extract) was then dialyzed into storage buffer (20 mM HEPES pH 7.9, 100 mM KCl, 0.2 mM EDTA, 20% glycerol, 0.2 mM PMSF, 0.5 mM DTT). Protein concentration was determined using NanoDrop 8000 UV-Vis spectrophotometer (ThermoFisher Scientific). • d. In vitro splicing assay (IVS)
All Ad2-derived (Pellizzoni et al., 1998) sequences were cloned into pcDNA3.1(+) vector (Promega) using 5′ EcoRI and 3′ XbaI restriction sites. The plasmids were linearized using XbaI and used as DNA templates in the in vitro transcription reactions. The FtzΔi intron-less plasmid (Luo and Reed, 1999) was linearized using EcoRI. All RNAs were in vitro transcribed and then purified using MEGAScript T7 (Invitrogen) and MegaClear (Invitrogen) kits, respectively. For splicing reactions using Ad2 variant pre-mRNAs, […] reactions were prepared using 8 μg nuclear extracts prepared from HeLa S3, 2 ng pre-mRNA, 0.2 ng FTZΔi, and varying concentrations of exemplary payloads or DMSO. After a 15 minute pre-incubation at 30° C., 1 μL splicing activation buffer (0.5 mM ATP, 20 mM creatine phosphate, 1.6 mM MgCl2) was added, and the reactions were incubated for 90 minutes at 30° C. The reactions were then quenched with 13 μL it DMSO, and 25 nL was used for RT-qPCR. RT-qPCR reactions were prepared using TaqMan RNA-to-CT 1-step kit (Life Technologies), RNA from splicing reactions, Ad2 (forward: […]; reverse: […]; probe: […]) and Ftz (forward: […]; reverse: […]; probe: […]) mRNA primer-probe sets. Prism 6 (Graphpad) was used for non-linear regression curve fitting of the formed spliced product and normalized to the control (DMSO) sample.
On the technique in general: Real-time PCR tracks product formation cycle by cycle.

Test [2] has as its system NCI-H1568 cells (high MCL1). Description: Cell proliferation and viability, CellTiter-Glo, 72 hours. It counts as cell-based. The following applies: for GI50: geometric mean. The protocol: (§1) Cell lines were maintained in RPMI-1640 (ATCC 30-2001) supplemented with 10% fetal bovine serum (FBS). The Panc lines were supplemented in addition with insulin and FBS up to 15% total.
(§2) Compounds for assay were prepared as stocks in 90% dimethyl sulfoxide (DMSO), assessed for purity by LC/MS, and serially diluted in DMSO using a low-volume liquid handler (VIAFLO ASSIST and VIAFLO II electronic 16-channel pipette, 0.5-12.5 μL) in an 11-point half-log serial dilution to create a master dose response (MDR) source used for all tests.
(§3) Transfer of compounds from the MDR source plate to cell assay-ready plates were accomplished directly by low-energy acoustic transfer (ATS100, EDC Biosystems). After transfer of compounds to the assay plate, the dose-response range experienced by cells was typically 10 μM-100 pM (5 logs), and final DMSO concentration in the assay was 0.1%, uniformly. Each assay plate was self-anchored containing vehicle/DMSO negative controls, medium-only/positive controls, and cidal control dose-responses of bortezomib and staurosporine. Assay-ready plates were heat-sealed and stored at −20° C. until used, no longer than one month.
(§4) A DMSO-matched time zero (T0) plate was read and then all other plates were incubated at 37° C. with 5% CO2 and 95% relative humidity until the end of assay. Cell proliferation and viability assays were performed 72 hours post-treatment depending on cell growth where at least one doubling would have occurred.
(§5) Assessment of viability and proliferation was by measurement of cell ATP content using CellTiter-Glo® Luminescent Cell Viability Assay reagent (Promega) according to the manufacturer's instructions (CellTiter-Glo® Luminescent Cell Viability Assay Technical Bulletin Instructions for Use of Product(s) G7570, G7571, G7572, G7573 Literature #TB288, Revised March 2015), using a microtiter plate reader (Envision, PE).
(§6) Cell proliferation was evaluated using the time zero (T0) signal as the positive control and the within-plate vehicle wells (DMSO) as the negative control. Data was converted to percent inhibition and falls into the range from −100% to 100% of growth where −100% equals a cidal response and 100% equals uninhibited or maximal growth. Cell growth at or near 0% is considered a static response.
Background: In ATP-based viability assays light output follows the ATP content of the culture.

Test [3] relates to Panc 05.04 cells (SF3b K700E mutant). The test is described as above. It counts as cell-based. Conditions: for GI50: geometric mean. As to the method: as §1, §2, §3, §4, §5, §6
[4] abbreviates: Ad2.1 pre-mRNA substrate, read-out: qPCR-IVS-ATS GMean IC50 (nM) Ad2.1.
Setting [5] is: Ad2.2 pre-mRNA substrate, read-out: qPCR-IVS-ATS GMean IC50 (nM) Ad2.2.
Where [6] appears, read: 72 h, NCIH1568.1, -100% = cidal, 0% = static, 100% = uninhibited growth.
Setting [7] is: NCI-H1568, 72 h, read-out: CTGlo-ATS GMean GI50 (nM) 72 h NCIH1568.1, 72 h, NCIH1568.1.
The mark [8] stands for this setting: 72 h, PANC0504.1, -100% = cidal, 0% = static, 100% = uninhibited growth.
The mark [9] stands for this setting: Panc 05.04, 72 h, read-out: CTGlo-ATS GMean GI50 (nM) 72 h PANC0504.1, 72 h, PANC0504.1.
Setting [10] is: NCI-H1568, read-out: CTGlo-ATS GMean GI50 (nM) 72 h NCIH1568.1, NCIH1568.1 cells, 72 h.
Where [11] appears, read: NCIH1568.1 cells, 72 h, −100% cidal, 0% static, 100% maximal growth.
[12] abbreviates: PANC0504.1 cells, 72 h, −100% cidal, 0% static, 100% maximal growth.
Where [13] appears, read: Panc 05.04, read-out: CTGlo-ATS GMean GI50 (nM) 72 h PANC0504.1, PANC0504.1 cells, 72 h.
Setting [14] is: Panc 05.04, 72 h, read-out: CTGlo-ATS GMean GI50 (nM) 72 h PANC0504.1, PANC0504.1 cells, 72 h.

Structures are written as SMILES. Read-outs that look alike come from different tables or passages of the source.

Take `C/C(=C\c1cccc(COC(=O)N2CCCC2CO)c1)[C@H]1OC(=O)C[C@H](O)CC[C@H](C)[C@@H](OC(=O)N2CCN(C)CC2)/C=C/[C@@H]1C` (stereo in doubt) [Compound 259, [(2S,3S,4E,6R,7S,10R)-10-hydroxy-2-[(E)-1-[3-[[(2R)-2-(hydroxymethyl)pyrrolidine-1-carbonyl]oxymethyl]phenyl]prop-1-en-2-yl]-3,7-dimethyl-12-oxo-1-oxacyclododec-4-en-6-yl] 4-methylpiperazine-1-carboxylate]: the IC50 (commonly the concentration needed to halve the response being measured) was greater than 25000 nM in test [1] (setting [4]) and 83.1 nM in test [1] (setting [5]). Besides, the “Ratio Ad2.1/2.2” value in test [1] turned out to be 300.977. For the same molecule, the “CTGlo-ATS Mean MinResponse % 72 h NCIH1568.1” value in test [2] (setting [6]) is recorded as −43.329%. The values for the GI50 in test [2] (setting [7]) and in test [3] (setting [9]) were 133 nM and 31.5 nM, respectively. In test [3] (setting [8]), the “CTGlo-ATS Mean MinResponse % 72 h PANC0504.1” value was −86.489%.

`C/C(=C\c1cc(F)cc(N2CCOCC2)c1)[C@H]1OC(=O)C[C@H](O)CC[C@H](C)[C@@H](OC(=O)N(C)Cc2ccncc2)/C=C/[C@@H]1C` [Compound 47]: the IC50 in test [1] (setting [4]) amounted to 16900 nM; in test [1] (setting [5]) it was 79.6 nM. Further, the GI50 – broadly, the concentration that inhibits growth by half – was 66.5 nM in test [2] (setting [10]) and 78.2 nM in test [3] (setting [13]). Moreover, the “CTGlo-ATS Mean MinResponse % 72 h NCIH1568.1” value in test [2] (setting [11]) is recorded as −44.494%. In addition, the “CTGlo-ATS Mean MinResponse % 72 h PANC0504.1” value in test [3] (setting [12]) is −87.783%.

For `C/C(=C\c1cccc(COC(=O)N2CCC(O)CC2)c1)[C@H]1OC(=O)C[C@H](O)CC[C@H](C)[C@@H](OC(=O)N2CCN(C)CC2)/C=C/[C@@H]1C` [Compound 261, [(2S,3S,4E,6R,7S,10R)-10-hydroxy-2-[(E)-1-[3-[(4-hydroxypiperidine-1-carbonyl)oxymethyl]phenyl]prop-1-en-2-yl]-3,7-dimethyl-12-oxo-1-oxacyclododec-4-en-6-yl] 4-methylpiperazine-1-carboxylate], the half-maximal inhibitory concentration (IC50) in test [1] (setting [4]) is 23300 nM; in test [1] (setting [5]), 76.6 nM. In addition, the “Ratio Ad2.1/2.2” value in test [1] turned out to be 304.222. Besides, the “CTGlo-ATS Mean MinResponse % 72 h NCIH1568.1” value in test [2] (setting [6]) is −36.811%. Besides, the results for the GI50 in test [2] (setting [7]) and in test [3] (setting [9]) were 57.6 nM and 32.3 nM, respectively. In test [3] (setting [8]), the “CTGlo-ATS Mean MinResponse % 72 h PANC0504.1” value is listed as −89.906%.

Regarding `C/C(=C\c1ccc(F)c(N2CCOCC2)c1)[C@H]1OC(=O)C[C@H](O)CC[C@H](C)[C@@H](OC(=O)N2CCN(C)CC2)/C=C/[C@@H]1C` [Compound 8], the 50% inhibitory concentration (IC50) turned out to be 14200 nM in test [1] (setting [4]) and 42.2 nM in test [1] (setting [5]). In test [3] (setting [12]), the “CTGlo-ATS Mean MinResponse % 72 h PANC0504.1” value is recorded as −94.207%. Moreover, in test [3] (setting [14]), the GI50 came to 19.3 nM.

In the case of `C/C(=C\c1cc(F)cc(N2CCC(O)CC2)c1)[C@H]1OC(=O)C[C@H](O)CC[C@H](C)[C@@H](OC(=O)N2CCN(C)CC2)/C=C/[C@@H]1C` [Compound 30], the IC50 is 19.1 nM in test [1] (setting [4]) and 11 nM in test [1] (setting [5]). Moreover, the GI50 in test [2] (NCI-H1568, 72 h, read-out: CTGlo-ATS GMean GI50 (nM) 72 h NCIH1568.1, NCIH1568.1 cells, 72 h) came to 5.89 nM; in test [3] (setting [14]), 7.02 nM. The “CTGlo-ATS Mean MinResponse % 72 h NCIH1568.1” value in test [2] (setting [11]) was −78.664%. Besides, in test [3] (setting [12]), the “CTGlo-ATS Mean MinResponse % 72 h PANC0504.1” value is −75.997%.

For `C/C(=C\c1ccc(S(=O)(=O)NC2CC2)c(F)c1)[C@H]1OC(=O)C[C@H](O)CC[C@H](C)[C@@H](OC(=O)N2CCN(C)CC2)/C=C/[C@@H]1C` [Compound 90, [(2S,3S,4E,6R,7S,10R)-2-[(E)-1-[4-(cyclopropylsulfamoyl)-3-fluorophenyl]prop-1-en-2-yl]-10-hydroxy-3,7-dimethyl-12-oxo-1-oxacyclododec-4-en-6-yl] 4-methylpiperazine-1-carboxylate], the half-maximal inhibitory concentration (IC50) in test [1] (setting [4]) is greater than 25000 nM; in test [1] (setting [5]) it was 168 nM. For the same molecule, the GI50 is 107 nM in test [2] (setting [10]) and 141 nM in test [3] (setting [13]). In addition, the “CTGlo-ATS Mean MinResponse % 72 h NCIH1568.1” value in test [2] (setting [11]) is −8.495%. In test [3] (setting [12]), the “CTGlo-ATS Mean MinResponse % 72 h PANC0504.1” value is −12.315%.
